# Where “and” joins values, the source holds several entries; their conditions need not be identical. Equal values may be shown once.
# Columns and labels:
# [1] = test system: primary rat cortical cultures; experiment: Neutral red (NR) uptake cytotoxicity assay; type: cell-based; settings: for Bottom (baseline, % control) / Top (maximal cell death, % control): fitted NR curve, primary rat cortical neurons, 24 h; for EC50: primary rat cortical cultures, 24 h of exposure, mean (95% CI)
# Procedure: Female Wistar rats were obtained from Charles River Laboratories. The animals were allowed free access to rat chow and water, being maintained on a 12 h/12 h light/dark cycle, under controlled temperature (20 ± 2 °C) and humidity (40–60%). Primary cortical cultures were prepared as previously described. Briefly, for embryo collection, the pregnant female Wistar rats were anesthetized with isoflurane and subsequently administered ketamine and xylazine (200 + 100 μL, intraperitoneal). At the end of the dissection procedures, the female rat was euthanized with the administration of sodium pentobarbital ([…]). The embryos were used between embryonic day 16 (E16) and E19, considering the mating day as E0. The embryos were dissected from the uterus, and the heads were decapitated and placed in ice-cold 0.1 M PBS supplemented with 0.6% (w/v) glucose. The cortex dissection was performed under a Zeiss stereo microscope (Stemi DV4). Following trypsinization (0.05% trypsin/EDTA) and DNAse I treatment, the tissue pieces were mechanically dissociated, and the cells seeded in freshly prepared neurobasal medium (supplemented with 2% B-27, 100 U/mL of penicillin, 100 μg/mL of streptomycin, and 1% GlutaMAX^TM supplement) at a density of 150,000 cells/cm^2 in 96-well plates precoated, overnight, with 0.05 mg/mL PLL solution (prepared in 0.1 M borate buffer, pH 8.5). The cultures were maintained at 37 °C in a 5% CO2 air atmosphere. The medium was renewed at 4 days in vitro (DIV) by replacing half of the volume with fresh medium, and the cultures were used at 8 DIV.
# The differentiated SH-SY5Y cells (25,000 cells/cm^2) and primary rat cortical cultures (150,000 cells/cm^2) were seeded onto 96-well plates as previously described.
# Accordingly, 6 days after seeding (differentiated SH-SY5Y cells) or at 8 DIV (primary cultures), the cells were exposed, for 24 h (37 °C, 5% CO2), to different concentrations of the drugs (0–1000 µM). Thus, the tested concentrations ranged from 0 to 1000 µM for 2C-T-2 and 2C-T-4; 0 to 500 µM for 2C-T-7; 0 to 250 µM for 25T2-NBOMe, and 0 to 100 µM for 25T4-NBOMe and 25T7-NBOMe.
# The NR uptake assay is based on the detection of viable cells through the incorporation of the NR dye by the cell’s lysosomes. In brief, after 24 h of exposure to the tested drugs, the differentiated SH-SY5Y cells and primary rat cortical cultures were incubated with NR (50 µg/mL in complete medium) for 90 or 210 min, respectively, at 37 °C, in a 5% CO2-95% air atmosphere. To extract the absorbed dye, an acidified ethanol solution was used, and the absorbance was then measured at 540 nm in a multi-well plate reader (PowerWaveX, BioTek Instruments, Winooski, VT, USA). The cytotoxicity was estimated by the percentage of NR uptake relative to the control cells, and a minimum of 4 independent experiments were conducted in triplicate.
# serotonergic B65 cells = test system: serotonergic B65 cells; set-up: method as in doi:10.1007/s11419-020-00527-w; settings: 50 μM, 3 h exposure; cited from earlier work
# MAO-A and MAO-B = settings: rat model; cited from earlier work
# [2] = test system: differentiated SH-SY5Y cells; experiment: Intracellular calcium levels, Fluo-4 AM probe; type: cell-based, human; settings: control 100.0%
# Procedure: Calcium is a vital second messenger for almost every cellular process, including cellular signaling, muscle function, neurotransmitter release, membrane function, and apoptosis. Therefore, its levels inside cells are strictly controlled to maintain cellular homeostasis. The intracellular calcium levels were measured using the cell-permeable Fluo-4 AM probe. Inside the cells, Fluo-4 AM is cleaved to its active and fluorescent form—Fluo-4—which has a high affinity for calcium ions (Ca^2⁺). Thus, its fluorescence emission is directly proportional to the concentration of calcium ions in the intracellular environment.
# Therefore, the SH-SY5Y cells were seeded onto 96-well plates (25,000 cells/cm^2) following the previously described seeding and differentiation protocol. […] The average value for negative control (EGTA-treated cells) was subtracted from every other condition and then the minimum average value was subtracted from the maximum average value for every other condition. The results are presented as a percentage relative to the control cells (0 µM). A minimum of 5 independent experiments were conducted in triplicate.
# [3] = drug at its EC50, immediately after exposure
SMILES,"Bottom (baseline, % control) [1] [% control]","Top (maximal cell death, % control) [1] [% control]",EC50 [1] [µM],mitochondrial production of ROS (serotonergic B65 cells),deamination by MAO-A and MAO-B (MAO-A and MAO-B),"Ca2+ intracellular levels, % of control cells ([2]; drug at its EC20, immediately after exposure) [%]","Ca2+ intracellular levels, % of control cells [2, 3]"
"CCSc1cc(OC)c(CCN)cc1OC.Cl [2C-T-2, 2-(4-(ethylthio)-2,5-dimethoxyphenyl)ethan-1-aminium chloride]",1.639,83.85,216,increase in the mitochondrial production of ROS,both isoenzymes can catalyze the deamination,–,–
"COc1cc(SC(C)C)c(OC)cc1CCN.Cl [2C-T-4, 2-(4-(isopropylthio)-2,5-dimethoxyphenyl)ethan-1-aminium chloride]",0.7855,82.56,110,no significant alterations,–,–,–
"CCCSc1cc(OC)c(CCN)cc1OC.Cl [2C-T-7, 2-(2,5-dimethoxy-4-(propylthio)phenyl)ethan-1-aminium chloride]",1.452,84.63,73.6,increase in the mitochondrial production of ROS,both isoenzymes can catalyze the deamination,129.9,146.5%
"CCSc1cc(OC)c(CCNCc2ccccc2OC)cc1OC.Cl [25T2-NBOMe, 2-(4-(ethylthio)-2,5-dimethoxyphenyl)-N-(2-methoxybenzyl)ethan-1-aminium chloride]",3.637,81.45,26.5,–,–,–,–
"COc1cc(SC(C)C)c(OC)cc1CCNCc1ccccc1OC.Cl [25T4-NBOMe, 2-(4-(isopropylthio)-2,5-dimethoxyphenyl)-N-(2-methoxybenzyl)ethan-1-aminium chloride]",2.059,83.51,19.9,–,–,–,–
"CCCSc1cc(OC)c(CCNCc2ccccc2OC)cc1OC.Cl [25T7-NBOMe, 2-(2,5-dimethoxy-4-(propylthio)phenyl)-N-(2-methoxybenzyl)ethan-1-aminium chloride]",3.972,82.95,14.4,–,–,–,> 300% and 320.9%

# — publication PMC11204507, “Mechanistic Insights into the Neurotoxicity of 2,5-Dimethoxyphenethylamines (2C) and Corresponding N-(2-methoxybenzyl)phenethylamine (NBOMe) Drugs” (Journal of Xenobiotics, 2024)
